Reference: US20170065533A1 (YISSUM RESEARCH DEVELOPMENT COMPANY OF THE HEBREW …, priority 2011, published 2017)

Tests used:
[1] = cited from earlier work
[2] = 50 mg/day over one year, cited from earlier work
[3] = cited from earlier work; remark: listed apart in the source
[4] = Particle size, PDI and zeta potential of nanocarriers; assay type: physicochemical; settings: INPs conjugated to MAbs
Description: mean diameter and particle size distribution measurements were carried out utilizing an ALV Noninvasive Back Scattering High Performance Particle Sizer (ALV-NIBS HPPS, Langen, Germany) at 25° C. and using water as diluent.
the zeta potential of the NPs was measured using the Malvern zetasizer (Malvern, UK) diluted in HPLC grade water.
The size and zeta potential of the various NPs were measured in water using a DTS zetasizer (Malvern, UK).
The mean diameter and the zeta potential of NCs were characterized using Malvern's Zetasizer (Nano series, Nanos-ZS, UK) at 25° C. and using water as diluent.
Mean diameter and zeta potential of the NCs were characterized using Malvern's Zetasizer (Nano ZSP) at 25° C. For the sample preparation, 200 mg of the anhydrous semi-solid preparation were dissolved in 2 mL HPLC water. The sample was vortexed and further centrifuged (4000 rpm, 10 min). Then, 1.2 mL of the supernatant was collected and centrifuged again (14000 rpm, 10 min). Finally, 1 mL of the obtained supernatant was collected and evaluated.

[5] = Conjugation efficiency of MAbs to NPs (BCA assay); assay type: physicochemical; settings: INPs conjugated to MAbs
Description: The conjugation efficiency of the macromolecules such as MAbs was determined using the […] Bicinchoninic acid assay (BCA) for protein quantification (Pierce, Ill., USA).

In the case of `C[C@]12CC[C@H](O)CC1=CC[C@@H]1[C@@H]2CC[C@]2(C)C(=O)CC[C@@H]12` [DHEA, dehydroepiandrosterone], the “expression of procollagen alpha1 (I) mRNA and protein” value ([1]; DHEA (5%) in ethanol:olive oil (1:2), 12 times over 4 weeks, aged and young skin) is given as “significantly increase”, the “basal expression of MMP-1 mRNA and protein” value ([1]; DHEA (5%) topical, 12 times over 4 weeks) is given as “significantly decreased” and the “expression of TIMP-1 protein” value ([1]; DHEA (5%) topical, aged skin) is given as “increased”. The “skin status (hydration, epidermal thickness, sebum production, pigmentation)” value ([2]; aged 60 years and over) was “improvement of the skin status”, the harmful consequences [2] was “no harmful consequences” and the “maximum solubility in mid chain triglycerides” value [3] was 1.77%.

In the case of “rituximab immunonanoparticles: thiolated PEG-PLGA50,000/PLGA48,000 nanoparticles surface-conjugated to rituximab MAb”, the Size [4] is reported as 73.75 nm and the Conjugation [5] is reported as 86.7%.
